# From patent US20090238808A1, “Process for the identification of novel enzyme interacting compounds” (priority 2005, published 2009)
# Legend:
# [1] = system: T1, RSK1 (Mus musculus); experiment: Kinobeads elution with test compound, mouse brain lysate, MS; type: binding; details: kinase released from kinobeads by specific elution
# T1 construct: from tissue; host or cells: mouse brain
# Method: (§1) This example illustrates competitive elution of proteins bound to kinobeads with non-modified test compounds (see particularly the fourth aspect of the invention). The kinobeads (as described in example 1) were contacted with mouse brains lysate, bound proteins were eluted with various test compounds and the released proteins were analysed by mass spectrometry.
# (§2) The kinobeads were contacted with mouse brain lysate under conditions that allow the binding of the proteins in the lysate to the ligands. The binding conditions were close to physiological by choosing suitable buffer conditions preserving the function of the proteins. After removing non-captured proteins through a gentle washing procedure the bound proteins were contacted with a test compound for protein elution.
# (§3) Various test compounds (see section 2.7) were used to release bound proteins following these steps:
# (§4) 1. Resuspend beads with bound proteins (section 2.4) in 1×DP buffer/0.2% NP-40 as 1:3 slurry (volume/volume). 2. Transfer 20 μl the 1:3 slurry into MoBiTech columns (equivalent to 5 μl of beads). 3. Place the column into an Eppendorf tube and centrifuge it for 15 seconds at 800 rpm at 4° C. Close columns with lower lid. 4. Add 10 μl elution buffer containing 1.0 mM of the test compound (concentration ranges of 0.1 to 1.0 mM are suitable). As a control use elution buffer containing 2% DMSO or 2% DMF dependent on the solvent used for dissolving the test compound. Close column with upper lid. 5. Incubate for 30 minutes at 4° C. in an Eppendorf incubator at 700 rpm. 6. Open column (first top, then bottom), put column back into siliconized tube (SafeSeal Microcentrifuge Tubes, cat. no 11270, Sorenson BioScience, Inc.). To harvest the eluate centrifuge 2 minutes at 2.000 rpm in table top centrifuge at room temperature. The typical volume of the eluate is approximately 15 μl. 7. Add 5 μl 4× NuPAGE SDS Sample Buffer (Invitrogen, NP0007) containing 100 mM DTT (DTT has to be added just prior to use). 8. Incubate for 30 minutes at 50° C. 9. Add 1/10 volume of 200 mg/ml iodoacetamide, incubate for 30 min at room temperature, protect from light. This reaction leads to the alkylation of cysteines for mass spectrometry. 10. Before loading samples onto the gel, centrifuge samples for 5 minutes at 15.000 rpm in order to remove precipitates. 11. For protein separation apply 10 μl sample to NuPAGE 4-12% Bis-Tris gel (Invitrogen, NPO335). 2.6 Preparation of Stock Solutions used in this Protocol
# (§5) Search criteria varied depending on which mass spectrometer was used for the analysis.
# [2] = target: T2, PKCg (Mus musculus, UniProt P63318); experiment: as above; type: binding; details: kinase released from kinobeads by specific elution
# T2 construct: from tissue; host or cells: mouse brain
# Method: as §1, §2, §3, §4, §5
# [3] = target: CaMK2b (Mus musculus, UniProt P28652); experiment: as above; type: binding; details: kinase released from kinobeads by specific elution
# Method: as §1, §2, §3, §4, §5
# [4] = target: T3, Erk1ps5 (Mus musculus, UniProt Q63844); experiment: as above; type: binding; details: kinase released from kinobeads by specific elution
# T3 construct: […]; from tissue; host or cells: mouse brain
# Method: as §1, §2, §3, §4, §5
# [5] = target: T4, Erk2 (Mus musculus, UniProt P63085); experiment: as above; type: binding; details: kinase released from kinobeads by specific elution
# T4 construct: […]; from tissue; host or cells: mouse brain
# T4 sequence (P63085 whole entry): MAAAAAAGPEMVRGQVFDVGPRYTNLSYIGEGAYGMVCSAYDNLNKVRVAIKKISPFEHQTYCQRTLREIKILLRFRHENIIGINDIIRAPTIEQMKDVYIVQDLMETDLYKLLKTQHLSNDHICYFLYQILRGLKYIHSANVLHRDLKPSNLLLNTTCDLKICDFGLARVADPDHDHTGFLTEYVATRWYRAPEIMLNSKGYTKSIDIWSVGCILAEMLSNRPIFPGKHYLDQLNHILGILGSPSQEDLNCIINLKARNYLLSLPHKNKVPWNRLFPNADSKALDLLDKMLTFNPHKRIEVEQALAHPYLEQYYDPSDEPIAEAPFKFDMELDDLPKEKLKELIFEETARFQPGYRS
# Method: as §1, §2, §3, §4, §5
# [6] = target: FER (Mus musculus, UniProt P70451); experiment: as above; type: binding; details: kinase released from kinobeads by specific elution
# Method: as §1, §2, §3, §4, §5
# [7] = target: T5, MAP2K1 (Mus musculus, UniProt P31938); experiment: as above; type: binding; details: kinase released from kinobeads by specific elution
# T5 construct: from tissue; host or cells: mouse brain
# T5 sequence (P31938 whole entry): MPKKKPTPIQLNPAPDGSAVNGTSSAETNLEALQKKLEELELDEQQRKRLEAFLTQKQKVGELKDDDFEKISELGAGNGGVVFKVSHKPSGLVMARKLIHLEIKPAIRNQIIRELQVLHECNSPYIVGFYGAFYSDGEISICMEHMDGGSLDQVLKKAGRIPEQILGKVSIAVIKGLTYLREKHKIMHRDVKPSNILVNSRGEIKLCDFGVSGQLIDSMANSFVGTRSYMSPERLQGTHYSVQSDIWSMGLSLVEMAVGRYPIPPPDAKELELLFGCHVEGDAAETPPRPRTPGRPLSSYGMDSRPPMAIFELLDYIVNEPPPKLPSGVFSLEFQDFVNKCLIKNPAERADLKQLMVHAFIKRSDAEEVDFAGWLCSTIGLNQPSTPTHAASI
# Method: as §1, §2, §3, §4, §5
# [8] = target: CDK5 (Mus musculus, UniProt P49615); experiment: as above; type: binding; details: kinase released from kinobeads by specific elution
# Sequence of CDK5 (P49615 whole entry): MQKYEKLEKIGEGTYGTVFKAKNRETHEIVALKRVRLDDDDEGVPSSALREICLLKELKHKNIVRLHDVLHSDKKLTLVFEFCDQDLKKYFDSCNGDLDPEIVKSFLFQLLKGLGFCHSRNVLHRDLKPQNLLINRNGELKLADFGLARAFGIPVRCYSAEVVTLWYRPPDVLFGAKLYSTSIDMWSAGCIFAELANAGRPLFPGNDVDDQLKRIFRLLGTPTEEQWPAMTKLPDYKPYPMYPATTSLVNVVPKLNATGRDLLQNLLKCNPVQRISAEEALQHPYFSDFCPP
# Method: as §1, §2, §3, §4, §5
# [9] = target: AAK1 (Mus musculus, UniProt Q3UHJ0); experiment: as above; type: binding; details: kinase released from kinobeads by specific elution
# Sequence of AAK1 (Q3UHJ0 whole entry): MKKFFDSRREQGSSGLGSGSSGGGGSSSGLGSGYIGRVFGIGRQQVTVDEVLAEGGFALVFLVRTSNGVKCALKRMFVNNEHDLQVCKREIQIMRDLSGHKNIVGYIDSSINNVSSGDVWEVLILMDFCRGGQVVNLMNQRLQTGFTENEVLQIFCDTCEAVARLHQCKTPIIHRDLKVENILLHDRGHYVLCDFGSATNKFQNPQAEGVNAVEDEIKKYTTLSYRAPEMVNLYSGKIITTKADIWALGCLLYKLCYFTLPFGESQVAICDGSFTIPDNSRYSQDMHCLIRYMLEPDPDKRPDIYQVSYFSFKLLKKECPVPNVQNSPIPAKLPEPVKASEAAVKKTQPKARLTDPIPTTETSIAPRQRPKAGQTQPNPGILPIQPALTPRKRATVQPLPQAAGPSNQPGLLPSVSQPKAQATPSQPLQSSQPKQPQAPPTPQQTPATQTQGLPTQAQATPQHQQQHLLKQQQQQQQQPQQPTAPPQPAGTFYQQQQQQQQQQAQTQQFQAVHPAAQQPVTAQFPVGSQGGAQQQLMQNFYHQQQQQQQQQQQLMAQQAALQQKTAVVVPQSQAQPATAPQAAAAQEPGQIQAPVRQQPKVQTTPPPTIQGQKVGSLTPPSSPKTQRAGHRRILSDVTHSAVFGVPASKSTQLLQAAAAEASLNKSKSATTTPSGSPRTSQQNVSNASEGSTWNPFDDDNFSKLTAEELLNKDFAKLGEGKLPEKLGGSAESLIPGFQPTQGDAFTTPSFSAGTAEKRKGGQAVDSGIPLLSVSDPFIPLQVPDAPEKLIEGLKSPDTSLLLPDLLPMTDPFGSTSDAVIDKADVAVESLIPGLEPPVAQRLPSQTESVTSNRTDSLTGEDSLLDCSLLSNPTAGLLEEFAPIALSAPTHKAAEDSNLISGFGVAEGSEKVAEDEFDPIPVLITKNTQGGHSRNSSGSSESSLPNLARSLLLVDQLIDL
# Method: as §1, §2, §3, §4, §5
# [10] = target: T6, CaMK2a (Mus musculus, UniProt P11798); experiment: as above; type: binding; details: kinase released from kinobeads by specific elution
# T6 construct: […]; from tissue; host or cells: mouse brain
# Method: as §1, §2, §3, §4, §5
# [11] = target: T7, JNK2 (Mus musculus, UniProt Q9WTU6); experiment: as above; type: binding; details: kinase released from kinobeads by specific elution
# T7 construct: from tissue; host or cells: mouse brain
# T7 sequence (Q9WTU6 whole entry): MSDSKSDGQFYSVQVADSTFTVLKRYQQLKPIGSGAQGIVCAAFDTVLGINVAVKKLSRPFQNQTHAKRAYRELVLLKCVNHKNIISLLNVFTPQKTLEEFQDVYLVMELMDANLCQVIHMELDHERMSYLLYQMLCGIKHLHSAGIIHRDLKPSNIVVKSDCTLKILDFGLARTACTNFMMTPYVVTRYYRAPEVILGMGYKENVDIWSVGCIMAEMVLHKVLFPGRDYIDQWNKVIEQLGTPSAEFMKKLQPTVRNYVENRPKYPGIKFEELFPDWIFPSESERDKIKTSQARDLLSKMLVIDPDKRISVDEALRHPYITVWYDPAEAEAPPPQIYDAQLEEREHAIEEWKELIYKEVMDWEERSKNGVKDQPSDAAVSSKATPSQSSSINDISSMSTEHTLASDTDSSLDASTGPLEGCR
# Method: as §1, §2, §3, §4, §5
# [12] = target: CRIK (Mus musculus, UniProt P49025); experiment: as above; type: binding; details: kinase released from kinobeads by specific elution
# Method: as §1, §2, §3, §4, §5
# [13] = target: T8, CaMK2d (Mus musculus, UniProt Q6PHZ2); experiment: as above; type: binding; details: kinase released from kinobeads by specific elution
# T8 construct: […]; from tissue; host or cells: mouse brain
# T8 sequence (Q6PHZ2 whole entry): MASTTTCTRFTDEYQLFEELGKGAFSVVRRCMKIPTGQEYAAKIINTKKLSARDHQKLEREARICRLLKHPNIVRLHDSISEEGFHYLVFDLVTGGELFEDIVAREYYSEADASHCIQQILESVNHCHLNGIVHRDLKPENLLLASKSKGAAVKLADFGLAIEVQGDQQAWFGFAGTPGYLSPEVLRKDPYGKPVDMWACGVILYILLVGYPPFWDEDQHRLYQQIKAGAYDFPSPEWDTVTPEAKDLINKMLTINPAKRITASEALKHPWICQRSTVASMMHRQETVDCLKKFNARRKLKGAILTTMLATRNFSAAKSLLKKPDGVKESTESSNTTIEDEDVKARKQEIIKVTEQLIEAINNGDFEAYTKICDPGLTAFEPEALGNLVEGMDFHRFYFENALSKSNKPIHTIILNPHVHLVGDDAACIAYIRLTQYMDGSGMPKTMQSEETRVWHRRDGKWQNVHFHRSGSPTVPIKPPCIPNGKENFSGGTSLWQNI
# Method: as §1, §2, §3, §4, §5
# [14] = target: T9, PYK2 (Mus musculus, UniProt Q9QVP9); experiment: as above; type: binding; details: kinase released from kinobeads by specific elution
# T9 construct: from tissue; host or cells: mouse brain
# Method: as §1, §2, §3, §4, §5
# [15] = target: T10, GSK3Aps (Mus musculus, UniProt Q2NL51); experiment: as above; type: binding; details: kinase released from kinobeads by specific elution
# T10 construct: from tissue; host or cells: mouse brain
# T10 sequence (Q2NL51 2-490 limits assumed): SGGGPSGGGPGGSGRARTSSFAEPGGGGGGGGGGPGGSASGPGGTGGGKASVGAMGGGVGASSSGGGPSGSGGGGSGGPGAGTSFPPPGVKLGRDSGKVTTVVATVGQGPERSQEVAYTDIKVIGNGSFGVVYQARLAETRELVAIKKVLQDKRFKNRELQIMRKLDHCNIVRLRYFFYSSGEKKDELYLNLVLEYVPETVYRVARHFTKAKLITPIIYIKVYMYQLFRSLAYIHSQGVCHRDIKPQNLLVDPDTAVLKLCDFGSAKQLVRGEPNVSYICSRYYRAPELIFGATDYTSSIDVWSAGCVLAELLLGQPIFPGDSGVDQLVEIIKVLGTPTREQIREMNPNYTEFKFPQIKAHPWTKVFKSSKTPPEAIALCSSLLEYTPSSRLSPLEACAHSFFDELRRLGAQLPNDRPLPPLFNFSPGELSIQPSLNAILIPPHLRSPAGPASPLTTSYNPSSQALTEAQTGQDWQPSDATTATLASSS
# Method: as §1, §2, §3, §4, §5
# [16] = target: T11, MARK2 (Mus musculus, UniProt Q05512); experiment: as above; type: binding; details: kinase released from kinobeads by specific elution
# T11 construct: from tissue; host or cells: mouse brain
# Method: as §1, §2, §3, §4, §5
# [17] = target: CaMKK2 (Mus musculus, UniProt Q8C078); experiment: as above; type: binding; details: kinase released from kinobeads by specific elution
# Method: as §1, §2, §3, §4, §5
# [18] = target: T12, GSK3B (Mus musculus, UniProt Q9WV60); experiment: as above; type: binding; details: kinase released from kinobeads by specific elution
# T12 construct: from tissue; host or cells: mouse brain
# T12 sequence (Q9WV60 whole entry): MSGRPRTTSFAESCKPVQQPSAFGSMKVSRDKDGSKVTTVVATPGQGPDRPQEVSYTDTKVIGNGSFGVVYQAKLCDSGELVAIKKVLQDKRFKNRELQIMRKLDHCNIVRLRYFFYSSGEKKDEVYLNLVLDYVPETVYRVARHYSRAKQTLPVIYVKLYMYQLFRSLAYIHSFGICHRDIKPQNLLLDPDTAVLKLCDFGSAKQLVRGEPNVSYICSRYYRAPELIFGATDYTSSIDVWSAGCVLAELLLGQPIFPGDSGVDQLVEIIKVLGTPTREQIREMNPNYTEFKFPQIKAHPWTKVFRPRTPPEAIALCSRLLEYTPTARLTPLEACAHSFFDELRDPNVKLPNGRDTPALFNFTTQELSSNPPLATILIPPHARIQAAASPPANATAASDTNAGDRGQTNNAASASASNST
# Text: (§6) This example illustrates competitive elution of proteins bound to kinobeads with non-modified test compounds (see particularly the fourth aspect of the invention).
# as §2, §3
# as §4, with “Open column (first top, then bottom), put column back into siliconized tube (SafeSeal Microcentrifuge Tubes, cat. no 11270, Sorenson BioScience, Inc.).” left out, “For protein separation apply 10 μl sample to NuPAGE 4-12% Bis-Tris gel (Invitrogen, NPO335).” left out
# as §5
# [19] = target: CaMK2g (Mus musculus, UniProt Q923T9); experiment: as above; type: binding; details: kinase released from kinobeads by specific elution
# Text: as §6, §2, §3
# as §4, with “Open column (first top, then bottom), put column back into siliconized tube (SafeSeal Microcentrifuge Tubes, cat. no 11270, Sorenson BioScience, Inc.).” left out, “For protein separation apply 10 μl sample to NuPAGE 4-12% Bis-Tris gel (Invitrogen, NPO335).” left out
# as §5
# [20] = target: T13, JNK3 (Mus musculus, UniProt Q61831); experiment: as above; type: binding; details: kinase released from kinobeads by specific elution
# T13 construct: from tissue; host or cells: mouse brain
# Method: as §1, §2, §3, §4, §5
# [21] = target: T14, p38a (Mus musculus, UniProt P47811); experiment: as above; type: binding; details: kinase released from kinobeads by specific elution
# T14 construct: from tissue; host or cells: mouse brain
# Method: as §1, §2, §3, §4, §5
# [22] = target: T15, JNK1 (Mus musculus, UniProt Q91Y86); experiment: as above; type: binding; details: kinase released from kinobeads by specific elution
# T15 construct: from tissue; host or cells: mouse brain
# Method: as §1, §2, §3, §4, §5
# [23] = target: T16, p38b (Mus musculus, UniProt Q9WUI1); experiment: as above; type: binding; details: kinase released from kinobeads by specific elution
# T16 construct: from tissue; host or cells: mouse brain
# T16 sequence (Q9WUI1 whole entry): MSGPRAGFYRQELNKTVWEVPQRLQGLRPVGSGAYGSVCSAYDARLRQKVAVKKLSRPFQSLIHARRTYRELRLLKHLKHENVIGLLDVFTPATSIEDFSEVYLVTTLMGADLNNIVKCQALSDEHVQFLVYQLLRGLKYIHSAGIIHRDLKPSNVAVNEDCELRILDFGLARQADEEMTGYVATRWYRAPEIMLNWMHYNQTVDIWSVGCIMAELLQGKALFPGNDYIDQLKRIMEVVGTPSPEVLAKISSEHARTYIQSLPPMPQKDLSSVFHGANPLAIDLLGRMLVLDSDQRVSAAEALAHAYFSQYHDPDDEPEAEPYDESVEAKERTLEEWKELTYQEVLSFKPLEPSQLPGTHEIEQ
# Method: as §1, §2, §3, §4, §5
# [24] = target: T17, MER (Homo sapiens, UniProt Q12866); experiment: Biochemical kinase activity assay (Invitrogen SelectScreen); details: read-out: % inhibition, MER
# T17 sequence (Q12866 21-999): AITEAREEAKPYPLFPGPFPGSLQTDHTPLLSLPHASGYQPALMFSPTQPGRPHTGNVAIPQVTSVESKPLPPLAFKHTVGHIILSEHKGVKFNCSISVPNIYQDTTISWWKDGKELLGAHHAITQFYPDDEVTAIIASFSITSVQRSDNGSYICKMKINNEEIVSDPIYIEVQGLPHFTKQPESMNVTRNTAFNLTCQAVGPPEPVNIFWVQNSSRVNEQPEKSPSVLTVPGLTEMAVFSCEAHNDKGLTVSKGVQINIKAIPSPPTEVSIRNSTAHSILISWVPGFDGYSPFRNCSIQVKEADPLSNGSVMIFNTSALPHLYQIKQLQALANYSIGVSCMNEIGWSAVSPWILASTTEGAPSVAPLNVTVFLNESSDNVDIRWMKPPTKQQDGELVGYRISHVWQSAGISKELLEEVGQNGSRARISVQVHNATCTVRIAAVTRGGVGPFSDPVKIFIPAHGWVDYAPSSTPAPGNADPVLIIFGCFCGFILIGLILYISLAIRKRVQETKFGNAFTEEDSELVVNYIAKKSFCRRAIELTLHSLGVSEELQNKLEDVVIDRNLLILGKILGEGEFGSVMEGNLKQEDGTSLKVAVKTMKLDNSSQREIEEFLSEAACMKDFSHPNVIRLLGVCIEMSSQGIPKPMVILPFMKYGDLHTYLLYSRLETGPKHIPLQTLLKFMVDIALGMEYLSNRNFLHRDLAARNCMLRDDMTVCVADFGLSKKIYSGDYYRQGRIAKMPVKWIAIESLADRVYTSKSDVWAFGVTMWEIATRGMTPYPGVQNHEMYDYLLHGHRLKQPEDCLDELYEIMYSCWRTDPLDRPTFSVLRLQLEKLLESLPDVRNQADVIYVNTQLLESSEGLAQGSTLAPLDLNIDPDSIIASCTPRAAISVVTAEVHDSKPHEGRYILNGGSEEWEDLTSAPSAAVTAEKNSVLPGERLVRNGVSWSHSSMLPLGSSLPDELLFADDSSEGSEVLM
# [25] = target: FER (Homo sapiens, UniProt P16591); experiment: as above; details: read-out: % inhibition, FER
# [26] = target: GCK (Homo sapiens, UniProt Q12851); experiment: as above; details: read-out: % inhibition, GCK
# T1 sequence (Q9WUT3 whole entry): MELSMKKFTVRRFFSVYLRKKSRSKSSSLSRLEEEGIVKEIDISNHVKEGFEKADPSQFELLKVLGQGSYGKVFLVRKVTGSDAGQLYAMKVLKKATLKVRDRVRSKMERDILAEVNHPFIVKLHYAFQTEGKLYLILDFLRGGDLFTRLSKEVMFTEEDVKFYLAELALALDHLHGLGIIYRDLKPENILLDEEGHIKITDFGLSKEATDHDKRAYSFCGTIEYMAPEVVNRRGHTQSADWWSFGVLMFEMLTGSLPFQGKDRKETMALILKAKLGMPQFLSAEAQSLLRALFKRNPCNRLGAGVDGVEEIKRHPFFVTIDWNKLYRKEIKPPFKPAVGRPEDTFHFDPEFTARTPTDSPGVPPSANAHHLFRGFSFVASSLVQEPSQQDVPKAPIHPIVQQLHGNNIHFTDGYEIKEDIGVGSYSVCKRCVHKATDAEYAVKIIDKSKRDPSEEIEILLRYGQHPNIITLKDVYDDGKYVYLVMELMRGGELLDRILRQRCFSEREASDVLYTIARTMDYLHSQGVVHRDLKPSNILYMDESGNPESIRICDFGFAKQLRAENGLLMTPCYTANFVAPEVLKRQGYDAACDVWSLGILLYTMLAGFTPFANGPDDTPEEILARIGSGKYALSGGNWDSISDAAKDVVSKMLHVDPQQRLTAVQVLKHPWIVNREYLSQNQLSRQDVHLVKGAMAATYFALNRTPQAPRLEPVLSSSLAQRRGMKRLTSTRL
smiles,measurement,setting,value
"NCCCn1cc(C2=C(c3c[nH]c4ccccc34)C(=O)NC2=O)c2ccccc21 [CZC1038, Bisindolylmaleimide III, reference compound]","mass spectrometry score, RSK1",[1],292
same,"number of identified peptides, RSK1",[1],7
same,"mass spectrometry score, PKCg",[2],107
same,"number of identified peptides, PKCg",[2],2
same,"mass spectrometry score, CaMK2b",[3],834
same,"number of identified peptides, CaMK2b",[3],52
same,"mass spectrometry score, Erk1ps5",[4],418
same,"number of identified peptides, Erk1ps5",[4],14
same,"mass spectrometry score, Erk2",[5],754
same,"number of identified peptides, Erk2",[5],50
same,"mass spectrometry score, FER",[6],237
same,"number of identified peptides, FER",[6],6
same,"mass spectrometry score, MAP2K1",[7],208
same,"number of identified peptides, MAP2K1",[7],6
same,"mass spectrometry score, CDK5",[8],831
same,"number of identified peptides, CDK5",[8],19
same,"mass spectrometry score, AAK1",[9],562
same,"number of identified peptides, AAK1",[9],38
same,"mass spectrometry score, CaMK2a",[10],911
same,"number of identified peptides, CaMK2a",[10],53
same,"mass spectrometry score, JNK2",[11],287
same,"number of identified peptides, JNK2",[11],11
same,"mass spectrometry score, CR1K",[12],90
same,"number of identified peptides, CR1K",[12],5
same,"mass spectrometry score, CaMK2d",[13],702
same,"number of identified peptides, CaMK2d",[13],17
same,"mass spectrometry score, PYK2",[14],291
same,"number of identified peptides, PYK2",[14],7
same,"mass spectrometry score, GSK3Aps",[15],1232
same,"number of identified peptides, GSK3Aps",[15],60
same,"mass spectrometry score, MARK2",[16],49
same,"number of identified peptides, MARK2",[16],1
same,"mass spectrometry score, CaMKK2",[17],314
same,"number of identified peptides, CaMKK2",[17],6
same,"mass spectrometry score, GSK3B",[18],1176
same,"number of identified peptides, GSK3B",[18],54
same,"mass spectrometry score, CaMK2g",[19],550
same,"number of identified peptides, CaMK2g",[19],18
Oc1ccc(-c2nc(-c3ccc(F)cc3)c(-c3ccncc3)[nH]2)cc1 [CZC7098],"mass spectrometry score, JNK3",[20],542
same,"number of identified peptides, JNK3",[20],30
same,"mass spectrometry score, Erk2",[5],506
same,"number of identified peptides, Erk2",[5],20
same,"mass spectrometry score, CDK5",[8],166
same,"number of identified peptides, CDK5",[8],4
same,"mass spectrometry score, p38a",[21],295
same,"number of identified peptides, p38a",[21],10
same,"mass spectrometry score, JNK1",[22],540
same,"number of identified peptides, JNK1",[22],19
same,"mass spectrometry score, AAK1",[9],198
same,"number of identified peptides, AAK1",[9],4
same,"mass spectrometry score, JNK2",[11],170
same,"number of identified peptides, JNK2",[11],5
same,"mass spectrometry score, GSK3Aps",[15],406
same,"number of identified peptides, GSK3Aps",[15],8
same,"mass spectrometry score, p38b",[23],80
same,"number of identified peptides, p38b",[23],2
same,"mass spectrometry score, GSK3B",[18],743
same,"number of identified peptides, GSK3B",[18],34
Cc1nc(Nc2ncc(C(=O)Nc3c(C)cccc3Cl)s2)cc(N2CCN(CCO)CC2)n1 [dasatinib],inhibition at 5 µM,[24],40%
same,inhibition at 5 µM,[25],36%
same,inhibition at 5 µM,[26],60%
